These results are taken from ChEMBL document CHEMBL1121704, “Fluorinated retinoic acids and their analogues. 2. Synthesis and biological activity of aromatic 4-fluoro analogues” (1981).

What all share (type): functional
The subject of experiment [1] is Mus musculus. In words: In vivo anti-papilloma activity against chemically induced skin papillomas in mice at dose of 80(mg/kg)/day.
Experiment [2] deals with Mus musculus. In words: In vivo anti-papilloma activity against chemically induced skin papillomas in mice at dose of 20(mg/kg)/day.
The test system of experiment [3] is Mus musculus. Briefly: In vivo anti-papilloma activity against chemically induced skin papillomas in mice at dose of 40 mg/kg/day.
For experiment [4], the species on record is Mus musculus. Briefly: Hypervitaminosis dose determined as a measure of toxicity.
Experiment [5] relates to Mus musculus. In words: In vivo anti-papilloma activity against chemically induced skin papillomas in mice at dose of 5(mg/kg)/day.
Experiment [6] relates to Mus musculus. Briefly: In vivo anti-papilloma activity against chemically induced skin papillomas in mice at dose of 10 mg/kg/day.

Molecules are shown by their SMILES.

Regarding `CCOC(=O)/C=C(C)/C(F)=C/C=C(C)/C=C/c1c(C)cc(C)c(Cl)c1C`, the values for the Antipapilloma activity in the experiment on Mus musculus [1], with Mus musculus [2] and in the experiment with Mus musculus [3] were -64%, -29% and -34%, respectively. For the same compound, the Dose in the experiment filed under Mus musculus [4] is over 200 mg/kg/day.

With `CCOC(=O)/C=C(C)/C(F)=C/C=C(C)/C=C/c1c(Cl)cc(OC)c(C)c1Cl`, in the experiment with Mus musculus [5], the Antipapilloma activity is given as -58%. This compound also displayed a Dose in the experiment filed under Mus musculus [4] of 25 mg/kg/day.

For `CCOC(=O)/C=C(C)/C(F)=C/C=C(C)/C=C/c1c(C)cc(OC)c(C)c1Cl`, the Antipapilloma activity in the experiment on Mus musculus [2] was -73%. Also, the Dose in the experiment filed under Mus musculus [4] stood at 50 mg/kg/day.

Take `CCOC(=O)/C=C(C)/C(F)=C/C=C(C)/C=C/c1c(C)cc(OC)c(C)c1C`: the Antipapilloma activity in the experiment with Mus musculus [5] is on record as -43%; with Mus musculus [1], -82%; in the experiment on Mus musculus [2], -62%; in the experiment on Mus musculus [3] it was -69%; in the experiment with Mus musculus [6], -76%. In addition, the Dose in the experiment filed under Mus musculus [4] is 50 mg/kg/day.

As for `CCOC(=O)/C=C(C)/C(F)=C/C=C(C)/C=C/c1c(Cl)cc(OC)c(C)c1C`, the Antipapilloma activity is reported as -41% in the experiment on Mus musculus [5], -59% with Mus musculus [2] and -60% with Mus musculus [6]. The Dose in the experiment filed under Mus musculus [4] was 50 mg/kg/day.

`CCOC(=O)/C=C(C)/C=C/C=C(C)/C=C/c1c(C)cc(OC)c(C)c1C` [ETRETINATE]: the Antipapilloma activity with Mus musculus [1] is given as -47%; in the experiment with Mus musculus [2], -29%; with Mus musculus [3], -33%; in the experiment with Mus musculus [6], 9%. Moreover, the Dose in the experiment filed under Mus musculus [4] was determined as 100 mg/kg/day.
